In patent US20240166652A1, “MODULATORS OF THE INTEGRATED STRESS PATHWAY” (Calico Life Sciences LLC, priority 2017, published 2024):

System: ATF4 luciferase reporter in HEK293T cells
Assay: ATF4-Luc assay (ATF4 luciferase reporter, tunicamycin-treated HEK293T cells)
Type: cell-based, human
Details: Homo sapiens, HEK-293T; HEK293T cells carrying the ATF4 luciferase reporter, 1 μg/mL tunicamycin, 7 hours

Compound | EC50 [nM]
O=C(COc1ccc(Cl)c(F)c1)NC12CC(NC(=O)COc3ccc(Cl)cc3NCCO)(C1)C2 [Compound 797, 2-(4-chloro-3-fluorophenoxy)-N-[3-(2-{4-chloro-2-[(2-hydroxyethyl)amino]phenoxy}acetamido)bicyclo[1.1.1]pentan-1-yl]acetamide] | 50 to 250
O=C(COc1ccc(F)c(F)c1)NC12CCC(NC(=O)COc3ccc(F)c(F)c3)(CC1)[C@@H](O)C2 [Compound 615, N,N′-[(2S)-2-hydroxybicyclo[2.2.2]octane-1,4-diyl]bis[2-(3,4-difluorophenoxy)acetamide]] | < 10
O=C(COc1ccc(Cl)c(Cl)c1)NC12CCCC(NC(=O)OCc3ccccc3)(C1)C2 [Compound 194, benzyl {5-[2-(3,4-dichlorophenoxy)acetamido]bicyclo[3.1.1]heptan-1-yl}carbamate] | > 2000
Cc1cc(OCC(=O)NC23CC(NC(=O)COc4ccc(Cl)c(F)c4)(C2)C3)cnc1C [Compound 234, 2-(4-chloro-3-fluorophenoxy)-N-(3-{2-[(5,6-dimethylpyridin-3-yl)oxy]acetamido}bicyclo[1.1.1]pentan-1-yl)acetamide] | 50 to 250
O=C(COc1cnc(C(=O)O)nc1)NC12CCC(NC(=O)COc3ccc(Cl)c(F)c3)(CC1)[C@@H](O)C2 [Compound 642, 5-[2-({(3S)-4-[2-(4-chloro-3-fluorophenoxy)acetamido]-3-hydroxybicyclo[2.2.2]octan-1-yl}amino)-2-oxoethoxy]pyrimidine-2-carboxylic Acid] | > 2000
Cc1cc(OCC(=O)NC23CCC(NC(=O)COc4ccc(Cl)c(C)c4)(CC2)[C@@H](O)C3)ccc1Cl [Compound 525, N,N′-[(2S)-2-hydroxybicyclo[2.2.2]octane-1,4-diyl]bis[2-(4-chloro-3-methylphenoxy)acetamide]] | < 10
COc1ncc(OCC(=O)NC23CCC(NC(=O)COc4ccc(Cl)c(F)c4)(CC2)[C@@H](O)C3)cn1 [Compound 637, 2-(4-chloro-3-fluorophenoxy)-N-[(2S)-2-hydroxy-4-{2-[(2-methoxypyrimidin-5-yl)oxy]acetamido}bicyclo[2.2.2]octan-1-yl]acetamide] | < 10
O=C(/C=C/c1ccc(C(F)(F)F)nc1)NC12CC(NC(=O)COc3ccc(Cl)c(F)c3)(C1)C2 [Compound 351, (2E)-N-{3-[2-(4-chloro-3-fluorophenoxy)acetamido]bicyclo[1.1.1]pentan-1-yl}-3-[6-(trifluoromethyl)pyridin-3-yl]prop-2-enamide] | 250 to 500
O=C(COCCc1ccc(Cl)cc1)NC12CC(NC(=O)COc3ccc(Cl)c(Cl)c3)(C1)C2 [Compound 155, 2-[2-(4-chlorophenyl)ethoxy]-N-{3-[2-(3,4-dichlorophenoxy)acetamido]bicyclo-[1.1.1]pentan-1-yl}acetamide] | 10 to 50
O=C(COc1ccc2c(c1)OC(F)(F)O2)NC12CC(NC(=O)COc3ccc4c(c3)OC(F)(F)O4)(C1)C2 [Compound 274, N,N′-(bicyclo[1.1.1]pentane-1,3-diyl)bis{2-[(2,2-difluoro-2H-1,3-benzodioxol-5-yl)oxy]acetamide}] | < 10
O=C(COc1ccc(Cl)cc1)NC12CCC(NC(=O)COc3ccc(Cl)cc3)(CC1)[C@@H](O)C2 [Compound 540, N,N′-[(2S)-2-hydroxybicyclo[2.2.2]octane-1,4-diyl]bis[2-(4-chlorophenoxy)acetamide]] | < 10
O=C(COc1ccc(Cl)c(F)c1)NC12CC(NC(=O)COc3cnc(F)c(Cl)c3)(C1)C2 [Compound 240, 2-(4-chloro-3-fluorophenoxy)-N-(3-{2-[(5-chloro-6-fluoropyridin-3-yl)oxy]acetamido}bicyclo[1.1.1]pentan-1-yl)acetamide] | < 10
O=C(COc1cc(F)c2cn[nH]c2c1)NC12CCC(NC(=O)COc3ccc4cn[nH]c4c3)(CC1)[C@@H](O)C2 [Compound 709] | < 10
O=C(COc1ccc2c(c1)OC(F)(F)O2)NC12CCC(NC(=O)COc3ccc4c(c3)OC(F)(F)O4)(CC1)[C@@H](O)C2 [Compound 542, N,N′-[(2S)-2-hydroxybicyclo[2.2.2]octane-1,4-diyl]bis{2-[(2,2-difluoro-2H-1,3-benzodioxol-5-yl)oxy]acetamide}] | < 10
O=C(COCc1n[nH]c(=O)o1)NC12CC(NC(=O)COc3ccc(Cl)c(F)c3)(C1)C2 [Compound 218, 2-(4-chloro-3-fluorophenoxy)-N-(3-{2-[(5-oxo-4,5-dihydro-1,3,4-oxadiazol-2-yl)methoxy]acetamido}bicyclo[1.1.1]pentan-1-yl)acetamide] | 500 to 2000
Cc1ccc(OCC(=O)NC23CCC(NC(=O)COc4ccc(Cl)c(F)c4)(CC2)[C@@H](O)C3)cc1C [Compound 471, 2-(4-chloro-3-fluorophenoxy)-N-{(2S)-4-[2-(3,4-dimethylphenoxy)acetamido]-2-hydroxybicyclo[2.2.2]octan-1-yl}acetamide] | < 10
CN(C(=O)COc1ccc(Cl)c(Cl)c1)C12CC(NC(=O)COc3ccc(F)c(Cl)c3)(C1)C2 [Compound 197, N-{3-[2-(3-chloro-4-fluorophenoxy)acetamido]bicyclo[1.1.1]pentan-1-yl}-2-(3,4-dichlorophenoxy)-N-methylacetamide] | 50 to 250

Compound | EC50 [nM]
Cc1ccc(OCC(=O)NC23CCC(NC(=O)COc4ccc(C)c(C)c4)(CC2)[C@@H](O)C3)cc1C [Compound 443, N,N′-[(2S)-2-hydroxybicyclo[2.2.2]octane-1,4-diyl]bis[2-(3,4-dimethylphenoxy)acetamide]] | < 10
O=C(/C=C/c1ccc(OC(F)(F)F)cn1)NC12CC(NC(=O)COc3ccc(Cl)c(F)c3)(C1)C2 [Compound 376, (2E)-N-{3-[2-(4-chloro-3-fluorophenoxy)acetamido]bicyclo[1.1.1]pentan-1-yl}-3-[5-(trifluoromethoxy)pyridin-2-yl]prop-2-enamide] | 250 to 500
O=C(COCCc1cccc(F)c1)NC12CC(NC(=O)COc3ccc(Cl)c(Cl)c3)(C1)C2 [Compound 150, 2-(3,4-dichlorophenoxy)-N-(3-{2-[2-(3-fluorophenyl)ethoxy]acetamido}-bicyclo[1.1.1]pentan-1-yl)acetamide] | 10 to 50
Cc1n[nH]c2cc(OCC(=O)NC34CC(NC(=O)COc5ccc(Cl)c(F)c5)(C3)C4)ccc12 [Compound 184, 2-(4-chloro-3-fluorophenoxy)-N-(3-{2-[(3-methyl-1H-indazol-6-yl)oxy]acetamido}bicyclo[1.1.1]pentan-1-yl)acetamide] | 50 to 250
O=C(COc1ccc(Cl)c(F)c1)NC12CC(NCCCOc3ccc(Cl)c(F)c3)(C1)C2 [Compound 705, 2-(4-chloro-3-fluorophenoxy)-N-(3-{[3-(4-chloro-3-fluorophenoxy)propyl]amino}bicyclo[1.1.1]pentan-1-yl)acetamide] | 10 to 50
O=C(COc1ccc(Cl)c(F)c1)NC12CCC(NC(=O)COc3ccon3)(CC1)[C@@H](O)C2 [Compound 639, 2-(4-chloro-3-fluorophenoxy)-N-[(3S)-3-hydroxy-4-{2-[(1,2-oxazol-3-yl)oxy]acetamido}bicyclo[2.2.2]octan-1-yl]acetamide] | 50 to 250
COC1CC2(NC(=O)COc3ccc(Cl)c(F)c3)CCC1(NC(=O)COc1ccc(Cl)c(F)c1)CC2 (stereo not drawn) [Compound 299, N,N′-(2-methoxybicyclo[2.2.2]octane-1,4-diyl)bis[2-(4-chloro-3-fluorophenoxy)acetamide]] | 10 to 50
O=C(COc1ccc(Cl)c(F)c1)NC12CC(NC(=O)COc3cc(F)c(F)c(F)c3)(C1)C2 [Compound 416, 2-(4-chloro-3-fluorophenoxy)-N-{3-[2-(3,4,5-trifluorophenoxy)acetamido]bicyclo[1.1.1]pentan-1-yl}acetamide] | < 10
O=C(COc1ccc(Cl)c(F)c1)NC12CC(NS(=O)(=O)Cc3ccc(C(F)(F)F)cc3)(C1)C2 [Compound 426, 2-(4-chloro-3-fluorophenoxy)-N-[3-({[4-(trifluoromethyl)phenyl]methanesulfonyl}amino)bicyclo[1.1.1]pentan-1-yl]acetamide] | 50 to 250
O=C(COc1ccc(Cl)c(F)c1)NC12CCC(NC(=O)COc3ccc4c(c3)OC(F)(F)O4)(CC1)C(O)C2 (stereo not drawn) [Compound 305, 2-(4-chloro-3-fluorophenoxy)-N-(4-{2-[(2,2-difluoro-2H-1,3-benzodioxol-5-yl)oxy]acetamido}-3-hydroxybicyclo[2.2.2]octan-1-yl)acetamide] | < 10
O=C(COc1ccc2c(c1)OC(F)(F)O2)NC12CCC(NC(=O)COc3ccc(Cl)c(F)c3)(CC1)[C@@H](O)C2 [Compound 726, 2-(4-chloro-3-fluorophenoxy)-N-[(2S)-4-{2-[(2,2-difluoro-2H-1,3-benzodioxol-5-yl)oxy]acetamido}-2-hydroxybicyclo[2.2.2]octan-1-yl]acetamide] | < 10
O=C(COc1ccc(F)cc1)NC12CC(NC(=O)COc3ccc(Cl)c(F)c3)(C1)C2 [Compound 408, 2-(4-chloro-3-fluorophenoxy)-N-{3-[2-(4-fluorophenoxy)acetamido]bicyclo[1.1.1]pentan-1-yl}acetamide] | < 10
O=C(COc1ccc2cn[nH]c2c1)NC12CC(NC(=O)COc3ccc4cn[nH]c4c3)(C1)C2 [Compound 109, N,N′-(bicyclo[1.1.1]pentane-1,3-diyl)bis{2-[(1H-indazol-6-yl)oxy]acetamide}] | 500 to 2000
O=C(COc1cccnc1)NC12CC(NC(=O)COc3ccc(Cl)c(Cl)c3)(C1)C2 [Compound 405, 2-(3,4-dichlorophenoxy)-N-(3-{2-[(pyridin-3-yl)oxy]acetamido}bicyclo[1.1.1]pentan-1-yl)acetamide] | 50 to 250
O=C(O)CN(CC(=O)NC12CC(NC(=O)COc3ccc(Cl)c(F)c3)(C1)C2)c1ccc(Cl)cc1 [Compound 684, {[2-({3-[2-(4-chloro-3-fluorophenoxy)acetamido]bicyclo[1.1.1]pentan-1-yl}amino)-2-oxoethyl](4-chlorophenyl)amino}acetic Acid] | > 2000
COC(=O)c1cc(OCC(=O)NC23CC(NC(=O)COc4ccc5c(c4)OC(F)(F)O5)(C2)C3)ccc1Cl [Compound 275, methyl 2-chloro-5-{2-1(3-{2-[(2,2-difluoro-2H-1,3-benzodioxol-5-yl)oxy]acetamido}bicyclo[1.1.1]pentan-1-yl)aminol-2-oxoethoxy}benzoate] | 500 to 2000
